Assay: Oral bioavailability in C57BL/6J mouse
Assay type: ADME, organism-based
Details: in vivo

SMILES	bioavailability [%]
COC(=O)c1cc(NS(=O)(=O)c2cc(Cl)cc(Cl)c2)ccc1S(=O)(=O)Nc1cc(Br)c(F)cc1C	71.3
Cc1cc(F)c(Br)cc1NS(=O)(=O)c1ccc(NS(=O)(=O)c2cc(Cl)cc(Cl)c2)cc1CN1CCOC[C@H]1C	93
